Laboratory results from patent US5158939A, “Method of stimulating the immune systems of animals and compositions useful therefor” (priority 1990, dated 1992).

Columns and labels:
neutrophil = conditions: literature; cited from earlier work
[1] = tested on: RAW 264.7 murine macrophage cells; test: Cachectin/TNF production by RAW 264.7 cells, immunoblot; format: cell-based; conditions: other lipid A analogs and precursors
Protocol: For the […] to activate the RAW 264.7 murine macrophage cell line, we chose the toxic deep rough chemotype LPS (ReLPS) from Escherichia coli D31m4, which was recently purified and characterized^15. […] This is a clear example of a lipid A derivative showing strong antagonism against a toxic agonist in the induction of cachectin.
The immunoblot method was used to quantitate the cachectin/TNF production by RAW 264.7 murine macrophage cells. RAW 264.7 cells^4,16 were seeded in 24-well plates (Nunc) at a density of 3×10^5 cells/well in Dulbecco's modified Eagle's medium supplemented with 5 percent fetal calf serum. After 12 hours, cell monolayers were washed twice with 1 ml of serum-free medium and then left covered with […] of the same. An aqueous suspension of DPLA and/or ReLPS was then added to a final concentration indicated. Cells were incubated for 12 hours, after which the medium was removed for measurement of TNF by immunoblotting. One hundred μl of medium was mixed with 100 μl of SDS-containing sample buffer, heated to 100° C. for 5 minutes, and subjected to electrophoresis in a 10-15% polyacrylamide gradient gel. Proteins were then transferred to nitrocellulose electrophoretically, and TNF was visualized through the use of a rabbit anti-mouse TNF polyclonal serum^3,5 applied at a 1:100 dilution, followed by alkaline phosphatase-conjugated goat anti-rabbit IgG (Bio-Rad).
Bands were visualized using nitroblue tetrazolium. Approximately 0.1 ng of cachectin/TNF may be detected as a band. The antiserum also recognized the processing intermediates (prohormones) on Western blot.

70Z/3 cells = conditions: background; cited from earlier work
[2] = large excess of lipid X; cited from earlier work

CCCCCCCCCCC[C@@H](O)CC(=O)N[C@H]1[C@@H](OP(=O)(O)O)O[C@H](CO)[C@@H](O)[C@@H]1NC(=O)C[C@H](O)CCCCCCCCCCC [3-aza-lipid X]
inhibition of LPS-induced neutrophil priming (neutrophil): inhibit the LPS-induced neutrophil priming

CCCCCCCCCCC[C@@H](O)CC(=O)N[C@H]1[C@@H](OP(=O)(O)O)O[C@H](CO)[C@@H](O)[C@@H]1OC(=O)C[C@H](O)CCCCCCCCCCC [lipid X]
induction of cachectin in RAW cells (immunoblot) [1]: caused the induction of cachectin
inhibition of LPS-induced neutrophil priming (neutrophil): inhibit the LPS-induced neutrophil priming
activity in stimulating 70Z/3 cells (70Z/3 cells): some activity in stimulating 70Z/3 cells
blocking of toxic effects of lipid A [2]: partially blocking its toxic effects

CCCCCCCCCCC[C@@H](O)CC(=O)N[C@H]1[C@H](OC[C@H]2O[C@H](OP(=O)(O)O)[C@H](NC(=O)C[C@H](O)CCCCCCCCCCC)[C@@H](OC(=O)C[C@H](O)CCCCCCCCCCC)[C@@H]2O)O[C@H](CO)[C@@H](OP(=O)(O)O)[C@@H]1OC(=O)C[C@H](O)CCCCCCCCCCC [precursor IVA, reference compound]
induction of cachectin in RAW cells (immunoblot) [1]: caused the induction of cachectin

monophosphoryl lipid A [reference compound]
induction of cachectin in RAW cells (immunoblot) [1]: caused the induction of cachectin
